This passage reports Activity and EC50 results from ChEMBL document CHEMBL1148786, “L-(+)-2-Amino-4-thiophosphonobutyric acid (L-thioAP4), a new potent agonist of group III metabotropic glutamate receptors: increased distal acidity affords enhanced potency” (J Med Chem, 2007).

The source made the active and inactive calls. The calls are words filed in the database; no cut-off is given here.

Test [1] has as its target Metabotropic glutamate receptor 3 (Homo sapiens) (UniProt Q14832). Kind of test: Activity at mGluR3 receptor at 100 uM.
Test [2] deals with Metabotropic glutamate receptor 2 (Homo sapiens) (UniProt Q14416). Kind of test: Activity at mGluR2 receptor at 100 uM.
Metabotropic glutamate receptor 2 (Homo sapiens), sequence (Q14416 19-872 limits assumed): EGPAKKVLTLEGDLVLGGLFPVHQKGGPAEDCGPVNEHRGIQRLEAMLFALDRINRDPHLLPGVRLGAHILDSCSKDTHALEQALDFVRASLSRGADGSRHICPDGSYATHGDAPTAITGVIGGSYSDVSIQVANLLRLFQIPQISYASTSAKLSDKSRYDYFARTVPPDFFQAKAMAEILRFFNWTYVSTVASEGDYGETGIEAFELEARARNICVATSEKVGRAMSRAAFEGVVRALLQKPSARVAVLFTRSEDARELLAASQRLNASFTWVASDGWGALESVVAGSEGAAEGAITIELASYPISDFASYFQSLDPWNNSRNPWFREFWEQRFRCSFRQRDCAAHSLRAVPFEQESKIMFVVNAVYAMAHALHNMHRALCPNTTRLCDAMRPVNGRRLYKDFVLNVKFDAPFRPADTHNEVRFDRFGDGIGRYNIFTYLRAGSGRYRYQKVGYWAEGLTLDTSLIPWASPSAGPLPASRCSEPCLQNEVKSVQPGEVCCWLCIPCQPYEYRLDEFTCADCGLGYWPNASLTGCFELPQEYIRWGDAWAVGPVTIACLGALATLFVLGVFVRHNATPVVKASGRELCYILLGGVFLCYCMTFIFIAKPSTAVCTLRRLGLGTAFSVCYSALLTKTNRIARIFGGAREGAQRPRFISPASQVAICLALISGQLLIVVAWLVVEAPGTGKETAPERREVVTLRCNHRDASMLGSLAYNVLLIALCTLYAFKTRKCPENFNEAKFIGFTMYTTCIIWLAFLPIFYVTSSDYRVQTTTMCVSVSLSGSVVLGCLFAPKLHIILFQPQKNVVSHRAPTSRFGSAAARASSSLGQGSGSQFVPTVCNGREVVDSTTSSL
The target in test [3] is Metabotropic glutamate receptor 6 (Rattus norvegicus, UniProt P35349). Kind of test: Agonist activity at rat mGluR6 receptor expressed HEK293 cells assessed as effect on inositol phosphate production. The format is functional, cell-based.
The target of test [4] is Metabotropic glutamate receptor 5 (Homo sapiens) (UniProt P41594). Kind of test: Activity at mGluR5 receptor at 100 uM.
Metabotropic glutamate receptor 5 (Homo sapiens), sequence (P41594 21-1212 limits assumed): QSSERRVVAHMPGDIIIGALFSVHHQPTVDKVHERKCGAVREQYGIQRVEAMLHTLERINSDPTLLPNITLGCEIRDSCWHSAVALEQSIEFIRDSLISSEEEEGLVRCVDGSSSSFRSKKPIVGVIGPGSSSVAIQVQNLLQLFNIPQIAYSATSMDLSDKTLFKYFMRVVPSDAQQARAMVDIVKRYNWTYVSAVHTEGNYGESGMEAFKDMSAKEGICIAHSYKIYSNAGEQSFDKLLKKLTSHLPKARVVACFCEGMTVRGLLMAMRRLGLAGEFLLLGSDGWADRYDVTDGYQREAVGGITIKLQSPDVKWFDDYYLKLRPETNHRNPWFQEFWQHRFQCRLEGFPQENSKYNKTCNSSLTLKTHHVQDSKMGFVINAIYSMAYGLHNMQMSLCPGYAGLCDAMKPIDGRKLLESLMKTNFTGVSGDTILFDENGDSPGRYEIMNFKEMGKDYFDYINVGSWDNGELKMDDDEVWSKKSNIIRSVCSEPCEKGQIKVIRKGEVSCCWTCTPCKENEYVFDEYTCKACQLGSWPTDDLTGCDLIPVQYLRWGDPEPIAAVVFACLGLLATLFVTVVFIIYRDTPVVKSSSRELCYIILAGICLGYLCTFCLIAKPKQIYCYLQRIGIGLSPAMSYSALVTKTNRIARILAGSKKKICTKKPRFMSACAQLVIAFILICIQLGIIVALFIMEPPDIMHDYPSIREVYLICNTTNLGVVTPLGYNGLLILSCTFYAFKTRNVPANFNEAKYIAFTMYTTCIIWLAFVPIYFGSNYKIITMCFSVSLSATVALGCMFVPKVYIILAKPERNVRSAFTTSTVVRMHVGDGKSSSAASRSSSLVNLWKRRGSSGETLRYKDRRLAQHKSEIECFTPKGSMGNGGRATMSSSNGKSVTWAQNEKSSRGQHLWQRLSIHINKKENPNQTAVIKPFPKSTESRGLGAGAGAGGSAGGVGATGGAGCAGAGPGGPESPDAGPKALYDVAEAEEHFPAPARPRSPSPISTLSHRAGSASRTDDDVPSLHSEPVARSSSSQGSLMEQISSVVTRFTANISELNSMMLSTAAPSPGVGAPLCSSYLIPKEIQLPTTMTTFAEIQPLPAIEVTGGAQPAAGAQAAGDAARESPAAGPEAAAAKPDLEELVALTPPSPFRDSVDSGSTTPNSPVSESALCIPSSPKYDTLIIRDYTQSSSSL
Test [5] concerns the target Metabotropic glutamate receptor 7 (Rattus norvegicus, UniProt P35400). Kind of test: Agonist activity at rat mGluR7 receptor expressed HEK293 cells assessed as effect on inositol phosphate production. The format is functional, cell-based.
Test [6] concerns the target Metabotropic glutamate receptor 4 (Rattus norvegicus, UniProt P31423). Kind of test: Agonist activity at rat mGluR4 receptor expressed HEK293 cells assessed as effect on inositol phosphate production. The class given is functional, cell-based.
Test [7] concerns the target Metabotropic glutamate receptor 8 (Rattus norvegicus, UniProt P70579). Kind of test: Agonist activity at rat mGluR8 receptor expressed HEK293 cells assessed as effect on inositol phosphate production. The format is functional, cell-based.
Test [8] has as its target Metabotropic glutamate receptor 1 (Homo sapiens) (UniProt Q13255). Kind of test: Activity at mGluR1 receptor at 100 uM.

Metabotropic glutamate receptor 3 (Homo sapiens), sequence (Q14832 23-879 limits assumed): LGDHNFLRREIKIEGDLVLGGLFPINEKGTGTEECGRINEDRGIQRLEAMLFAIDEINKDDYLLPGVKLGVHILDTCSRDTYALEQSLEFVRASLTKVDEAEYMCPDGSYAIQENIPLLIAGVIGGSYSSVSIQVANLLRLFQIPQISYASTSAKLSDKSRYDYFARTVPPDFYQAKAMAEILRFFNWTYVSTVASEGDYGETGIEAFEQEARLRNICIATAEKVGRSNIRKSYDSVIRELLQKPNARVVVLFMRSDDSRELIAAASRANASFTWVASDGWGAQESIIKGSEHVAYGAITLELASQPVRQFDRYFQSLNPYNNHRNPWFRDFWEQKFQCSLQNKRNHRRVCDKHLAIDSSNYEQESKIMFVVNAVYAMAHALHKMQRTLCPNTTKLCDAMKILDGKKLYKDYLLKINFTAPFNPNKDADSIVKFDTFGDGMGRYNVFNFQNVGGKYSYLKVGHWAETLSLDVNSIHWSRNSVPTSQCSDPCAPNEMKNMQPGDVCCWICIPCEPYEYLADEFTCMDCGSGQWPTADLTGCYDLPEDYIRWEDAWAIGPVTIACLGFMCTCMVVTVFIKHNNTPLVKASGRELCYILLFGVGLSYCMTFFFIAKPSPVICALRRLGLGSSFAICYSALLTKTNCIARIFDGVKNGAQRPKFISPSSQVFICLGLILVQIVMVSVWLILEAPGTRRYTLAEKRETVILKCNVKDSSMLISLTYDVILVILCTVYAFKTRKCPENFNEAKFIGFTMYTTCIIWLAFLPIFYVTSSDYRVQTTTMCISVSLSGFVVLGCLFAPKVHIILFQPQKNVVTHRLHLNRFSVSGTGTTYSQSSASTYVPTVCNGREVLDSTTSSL
Metabotropic glutamate receptor 1 (Homo sapiens), sequence (Q13255 19-1194 limits assumed): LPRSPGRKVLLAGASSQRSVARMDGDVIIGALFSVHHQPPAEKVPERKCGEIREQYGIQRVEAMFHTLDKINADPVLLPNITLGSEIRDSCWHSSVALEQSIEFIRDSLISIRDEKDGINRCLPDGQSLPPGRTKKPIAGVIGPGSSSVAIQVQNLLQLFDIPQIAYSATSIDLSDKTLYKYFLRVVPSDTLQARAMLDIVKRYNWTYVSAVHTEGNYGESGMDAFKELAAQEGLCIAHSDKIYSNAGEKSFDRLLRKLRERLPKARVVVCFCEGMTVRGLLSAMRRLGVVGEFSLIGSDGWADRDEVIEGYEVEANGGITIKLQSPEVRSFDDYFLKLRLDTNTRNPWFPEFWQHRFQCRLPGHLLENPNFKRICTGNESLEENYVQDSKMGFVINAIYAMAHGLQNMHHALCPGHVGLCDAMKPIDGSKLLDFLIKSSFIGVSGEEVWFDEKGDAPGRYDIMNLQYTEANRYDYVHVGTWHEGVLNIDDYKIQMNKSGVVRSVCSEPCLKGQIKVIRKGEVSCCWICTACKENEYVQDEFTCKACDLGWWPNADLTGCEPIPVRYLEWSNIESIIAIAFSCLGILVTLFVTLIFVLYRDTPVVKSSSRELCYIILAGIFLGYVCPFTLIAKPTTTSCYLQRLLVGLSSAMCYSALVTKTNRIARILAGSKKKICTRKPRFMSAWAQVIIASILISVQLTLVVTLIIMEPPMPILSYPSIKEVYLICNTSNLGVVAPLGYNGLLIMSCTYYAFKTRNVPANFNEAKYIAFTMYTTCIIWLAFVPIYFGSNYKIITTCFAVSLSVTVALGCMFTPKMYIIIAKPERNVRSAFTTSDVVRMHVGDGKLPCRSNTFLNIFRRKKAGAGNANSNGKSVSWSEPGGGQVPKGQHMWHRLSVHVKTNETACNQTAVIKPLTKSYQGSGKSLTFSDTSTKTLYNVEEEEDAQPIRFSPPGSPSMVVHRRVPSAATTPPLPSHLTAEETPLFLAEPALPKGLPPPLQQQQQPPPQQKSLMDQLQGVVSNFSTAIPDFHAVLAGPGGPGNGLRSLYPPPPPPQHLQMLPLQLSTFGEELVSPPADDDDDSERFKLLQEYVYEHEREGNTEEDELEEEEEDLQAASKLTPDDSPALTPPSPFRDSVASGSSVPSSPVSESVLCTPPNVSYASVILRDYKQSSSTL
Metabotropic glutamate receptor 4, sequence (P31423 whole entry): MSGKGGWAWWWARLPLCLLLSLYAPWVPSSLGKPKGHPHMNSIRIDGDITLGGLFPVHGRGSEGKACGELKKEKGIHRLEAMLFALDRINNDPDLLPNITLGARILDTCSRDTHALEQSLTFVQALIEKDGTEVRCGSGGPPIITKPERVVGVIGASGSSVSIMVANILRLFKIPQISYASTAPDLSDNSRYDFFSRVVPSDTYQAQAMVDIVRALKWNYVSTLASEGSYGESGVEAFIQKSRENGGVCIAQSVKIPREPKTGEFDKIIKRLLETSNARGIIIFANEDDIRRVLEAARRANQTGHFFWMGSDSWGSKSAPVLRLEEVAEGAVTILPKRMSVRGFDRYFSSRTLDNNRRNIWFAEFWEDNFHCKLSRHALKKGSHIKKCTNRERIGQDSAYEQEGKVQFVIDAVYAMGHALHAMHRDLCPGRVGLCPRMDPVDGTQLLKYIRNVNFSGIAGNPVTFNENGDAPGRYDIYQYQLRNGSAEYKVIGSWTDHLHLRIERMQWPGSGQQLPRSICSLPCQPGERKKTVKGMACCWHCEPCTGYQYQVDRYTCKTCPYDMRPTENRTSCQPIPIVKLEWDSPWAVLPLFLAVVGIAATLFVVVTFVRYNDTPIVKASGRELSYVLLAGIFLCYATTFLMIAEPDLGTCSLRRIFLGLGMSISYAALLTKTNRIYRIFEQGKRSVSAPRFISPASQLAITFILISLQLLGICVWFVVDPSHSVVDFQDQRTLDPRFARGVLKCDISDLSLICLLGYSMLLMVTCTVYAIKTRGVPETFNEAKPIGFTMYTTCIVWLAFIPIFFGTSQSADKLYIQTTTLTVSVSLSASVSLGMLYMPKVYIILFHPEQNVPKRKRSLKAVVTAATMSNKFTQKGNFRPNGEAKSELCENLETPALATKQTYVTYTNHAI

The EC50 is the concentration needed to bring the measured effect to its halfway point. In the case of `N[C@@H](CC[PH](=O)O)C(=O)O`, the result in test [1], in test [2], in test [4] and in test [8] was inactive. Moreover, the EC50 in test [3] is 27.8 µM; in test [5] it was > 500 µM; in test [6], 4.05 µM; in test [7] it was 1.72 µM.
With `CP(=O)(O)CC[C@H](N)C(=O)O` [PHOSPHINOTHRICIN], the outcome in test [1], in test [2], in test [4] and in test [8] was inactive. Further, the EC50 was > 500 µM in test [3], > 500 µM in test [5], 1100 µM in test [6] and 412 µM in test [7].
On to `N[C@@H](CCP(O)(O)=S)C(=O)O`, for which the result in test [1], in test [2], in test [4] and in test [8] was inactive.
Take `N[C@@H](CCP(=O)(O)O)C(=O)O`: the outcome in test [1], in test [2], in test [4] and in test [8] was inactive.
